# Where two headings read alike, the source gives them in different places. Starred links: 1 amine or outer side, 2 acyl side, 3 side chain; linkers in the order of their positions; H or OH if unused. Positions of bridges follow the written chain, without caps; N, C: chain ends. Non-standard residues stand in square brackets, D forms with d. Residues, ends and D or L forms follow the SMILES beside them. Chains are numbered I, II in the order given. *: point of attachment. ImPyβIm = Cn1cc(NC(=O)c2nccn2C)cc1C(=O)NCCC(=O)Nc1cn(C)c(C(=O)*)n1; HN(CH2CH2O)5CH2CH2NH = C(COCCOCCOCCOCCOCCN[*:2])N[*:1]; 4Amino1MeIm2CO = Cn1cc(N[*:1])nc1C(=O)[*:2]; Benzoyl(4-tBu) = CC(C)(C)c1ccc(C(=O)*)cc1; Lys(Et2) = CCN(CC)CCCC[C@H](N)C(=O)O; X1 = Cn1cc(N[*:1])cc1C(=O)[*:2]; dDab = NCC[C@@H](N)C(=O)O
# System: Myotonic Dystrophy 1 affected patient fibroblasts (Coriell GM04602; 1600 CTG repeats)
# Assay: DM1 foci reduction assay (CAG10-Cy3 FISH, average foci per nucleus)
# Format: cell-based
# Settings: Homo sapiens, Fibroblast
# Procedure: DM1 foci reduction assay methods: Myotonic Dystrophy 1 affected patient fibroblasts (Coriell GM04602; 1600 CTG repeats) and wild type fibroblasts (Coriell GM07492; control line) were cultured separately in Gibco DMEM (1×)+4.5 g/L D-Glucose+L-Glutamine+110 mg/L Sodium Pyruvate, supplemented with 10% FBS and 1× Pen/Strep. Cells were maintained in incubator at 37° C. and 5% CO2 with media refresh every 48-72 hours.
# At 90-95% confluency, both cell lines were harvested using Trypl-E then pelleted at 500×g for 5 minutes and were resuspended in media. DM1 fibroblasts were seeded in Agilent 96 well black plates at a density of 5,000 cells/well in 200 μL media; 8 wells were reserved for control fibroblasts. Plates were returned to incubator for 24 hours at 37° C. and 5% CO2.
# Compounds were diluted from 10 mM stock to 1 mM in DMSO, then diluted once more to 6 μM (2× concentration) in media. Media was removed from all plates and cells were replenished with 100 μL media. Cells were treated in 8-point dose response, 1:3 fold dilution, 3 μM top dose via addition of 100 μL of 6 μM (2× concentration) compound to the 100 μL media with cells. Plates were returned to incubator for 48-hour time-course experiment at 37° C. and 5% CO2.
# Following treatment, compounds were removed, and plates were washed with PBS, then cells were fixed in 75 μL 4% PFA solution for 20 minutes at room temperature. Plates were washed twice with PBS and twice with cold 70% ethanol before permeabilization with 250 μL cold 70% ethanol for 24-72 hours at −20° C.
# After permeabilization, plates were washed once with a 30% formamide and 2×SSC buffer and rehydrated in that buffer for 15 minutes at room temperature. Cells were incubated overnight at 37° C. in 75 μL of a hybridization solution containing 30% formamide, 2×SSC, 25 mg/mL dextran sulfate, 2.5 mg/mL BSA, 0.2 μg/mL Herring sperm DNA, 2 mM vanadyl-ribonucleoside complex, and 5 nM CAG10-Cy3 probe.
# Plates were washed once with 30% formamide in 2×SSC buffer, then twice with the buffer for 30 minutes at 37° C., 300 RPM in an incubating plate shaker. Cells were stained with 75 μL of 2.5 μg/mL DAPI in PBS for 5 minutes at room temperature. Plates were then washed twice with PBS and stored in 250 μL PBS. Plates were sealed with adhesive foil and wiped down with 70% ethanol.
# Cells were imaged on a Cytation5 with a 20× objective sampling from 4 areas of each well. Nuclei were captured under DAPI channel and foci under RFP channel. Plates were analyzed on an average foci per nucleus per well basis.
# [1] = DM1 fibroblasts, 48 h treatment, 8-point dose response, 3 μM top dose, read-out: Foci Reduction in Fibroblast EC50, 48 h
# [2] = 48 h, read-out: Foci Reduction in Fibroblast EC50, 48 h (nM)
Structure (SMILES),EC50 [1] [nM],EC50 [2] [nM]
CC(=O)c1cc(-c2ccccc2S(C)(=O)=O)c2cc(OCCOCCOCCOCCOCCOCCNC(=O)CCNC(=O)c3nc(NC(=O)c4cc(NC(=O)CCNC(=O)c5nc(NC(=O)CCCNC(=O)c6cc(NC(=O)c7nc(NC(=O)CCNC(=O)c8cc(NC(=O)c9nccn9C)cn8C)cn7C)cn6C)cn5C)cn4C)cn3C)ccn12 [Compound 169],> 500,–
CC(C)C[C@H](NC(=O)[C@H](C)NC(=O)[C@H](Cc1ccccc1)NC(=O)c1ccc(C(C)(C)C)cc1)C(=O)N[C@@H](CCCCN(C)C1CC2CCC1C2)C(=O)N[C@@H](CO)C(=O)NCCOCCOCCOCCOCCOCCNC(=O)c1cc(NC(=O)c2cc(NC(=O)c3nc(NC(=O)c4cc(NC(=O)[C@@H](N)CCNC(=O)c5nc(NC(=O)c6cc(NC(=O)c7cc(NC(=O)c8nccn8C)cn7C)cn6C)cn5C)cn4C)cn3C)cn2C)cn1C (stereo partly shown) [Compound 58],–,> 500
CCN(CC)CCCC[C@H](NC(=O)[C@H](CC(C)C)NC(=O)[C@H](C)NC(=O)[C@H](Cc1ccccc1)NC(=O)c1ccc(C(C)(C)C)cc1)C(=O)N[C@@H](CO)C(=O)NCCOCCOCCOCCOCCOCCNC(=O)c1nc(NC(=O)c2cc(NC(=O)c3cc(NC(=O)c4nc(NC(=O)CCCNC(=O)c5cc(NC(=O)c6nc(NC(=O)CCNC(=O)c7cc(NC(=O)c8nccn8C)cn7C)cn6C)cn5C)cn4C)cn3C)cn2C)cn1C [Compound 105],–,> 500
Cn1cc(NC(=O)c2nc(NC(=O)CCNC(=O)c3cc(NC(=O)c4nc(NC(=O)CCNC(=O)c5cccn5C)cn4C)cn3C)cn2C)cc1C(=O)NCCC(=O)Nc1cn(C)c(C(=O)NCCOCCOCCOCCOCCOCCOCCOCCOCCOCCOCCN2CCC(C(=O)Nc3ncc(SCc4ncc(C(C)(C)C)o4)s3)CC2)n1 [Compound 2],< 100,–
CCN(CC)CCCC[C@H](NC(=O)[C@H](CC(C)C)NC(=O)[C@H](C)NC(=O)[C@H](Cc1ccccc1)NC(=O)c1ccc(C(C)(C)C)cc1)C(=O)N[C@@H](CO)C(=O)NCCOCCOCCOCCOCCOCCNC(=O)c1cc(NC(=O)c2cc(NC(=O)c3nc(NC(=O)c4cc(NC(=O)[C@@H](CCNC(=O)c5nc(NC(=O)CCNC(=O)c6cc(NC(=O)c7nccn7C)cn6C)cn5C)NC(C)=O)cn4C)cn3C)cn2C)cn1C [Compound 114] (I: {Benzoyl(4-tBu)}-FAL[Lys(Et2)]S / II: Ac-[dDab](ImPyβIm)[X1][4Amino1MeIm2CO][X1][X1]; linker I:C-II:C via HN(CH2CH2O)5CH2CH2NH),–,> 500
CCN(CC)CCCC[C@H](NC(=O)[C@H](CC(C)C)NC(=O)[C@H](C)NC(=O)[C@H](Cc1ccccc1)NC(=O)c1ccccc1C)C(=O)N[C@@H](CO)C(=O)NCCOCCOCCOCCOCCOCCNC(=O)CCNC(=O)c1nc(NC(=O)c2cc(NC(=O)CCNC(=O)c3nc(NC(=O)CCCNC(=O)c4cc(NC(=O)c5nc(NC(=O)CCNC(=O)c6cc(NC(=O)c7nccn7C)cn6C)cn5C)cn4C)cn3C)cn2C)cn1C [Compound 86],–,< 100
CCN(CC)CCCC[C@H](NC(C)=O)C(=O)N[C@@H](CO)C(=O)NCCOCCOCCOCCOCCOCCNC(=O)CCNC(=O)c1nc(NC(=O)c2cc(NC(=O)CCCC(=O)c3nc(NC(=O)CCCNC(=O)c4cc(NC(=O)c5nc(NC(=O)CCNC(=O)c6cc(NC(=O)c7nccn7C)cn6C)cn5C)cn4C)cn3C)cn2C)cn1C [Compound 65],–,> 500
Cn1cc(NC(=O)c2cc(NC(=O)c3nc(NC(=O)c4cc(NC(=O)[C@@H](N)CCNC(=O)c5nc(NC(=O)CCNC(=O)c6cc(NC(=O)c7nccn7C)cn6C)cn5C)cn4C)cn3C)cn2C)cc1C(=O)NCCOCCOCCOCCOCCOCCOCCOCCOCCOCCOCCOCCOCCOCCOCCOCCN1CCC(C(=O)Nc2ncc(SCc3ncc(C(C)(C)C)o3)s2)CC1 [Compound 121],> 500,–
CCN(CC)CCCC[C@H](NC(=O)[C@H](CC(C)C)NC(=O)[C@H](C)NC(=O)[C@H](Cc1ccccc1)NC(=O)c1ccc(C(C)(C)C)cc1)C(=O)N[C@@H](CO)C(=O)N(C)CCOCCOCCN(C)C(=O)CCNC(=O)c1nc(NC(=O)c2cc(NC(=O)CCNC(=O)c3nc(NC(=O)CCCNC(=O)c4cc(NC(=O)c5nc(NC(=O)CCNC(=O)c6cc(NC(=O)c7nccn7C)cn6C)cn5C)cn4C)cn3C)cn2C)cn1C [Compound 76],–,< 100
CC(C)C[C@H](NC(=O)[C@H](C)NC(=O)[C@H](Cc1ccccc1)NC(=O)c1ccc(C(C)(C)C)cc1)C(=O)N[C@@H](CCCCN(C)C1CC2CCC1C2)C(=O)N[C@@H](CO)C(=O)NCCOCCOCCNC(=O)c1cc(NC(=O)c2cc(NC(=O)c3nc(NC(=O)c4cc(NC(=O)[C@@H](N)CCNC(=O)c5nc(NC(=O)c6cc(NC(=O)c7cc(NC(=O)c8nccn8C)cn7C)cn6C)cn5C)cn4C)cn3C)cn2C)cn1C (stereo partly shown) [Compound 118],–,> 500
CCN(CC)CCCC[C@H](NC(=O)[C@H](CC(C)C)NC(=O)[C@H](C)NC(=O)[C@H](Cc1ccccc1)NC(=O)c1ccc(C(C)(C)C)cc1)C(=O)N[C@@H](CO)C(=O)NCCOCCOCCOCCOCCOCCNC(=O)c1nc(NC(=O)CCNC(=O)c2cc(NC(=O)c3nc(NC(=O)CCCNC(=O)c4cc(NC(=O)c5nc(NC(=O)c6cc(NC(=O)c7cccn7C)cn6C)cn5C)cn4C)cn3C)cn2C)cn1C [Compound 107],–,> 500
CCN(CC)CCCC[C@H](NC(=O)COCCOCCNC(=O)c1ccc(C(C)(C)C)cc1)C(=O)N[C@@H](CO)C(=O)NCCOCCOCCNC(=O)CCNC(=O)c1nc(NC(=O)c2cc(NC(=O)CCNC(=O)c3nc(NC(=O)CCCNC(=O)c4cc(NC(=O)c5nc(NC(=O)CCNC(=O)c6cc(NC(=O)c7nccn7C)cn6C)cn5C)cn4C)cn3C)cn2C)cn1C [Compound 81],–,< 100
CCN(CC)CCCC[C@H](NC(=O)[C@H](CC(C)C)NC(=O)[C@H](C)NC(=O)[C@H](Cc1ccccc1)NC(=O)c1ccc(C(C)(C)C)cc1)C(=O)N[C@@H](CO)C(=O)NCCOCCOCCOCCOCCOCCNC(=O)CCNC(=O)c1cc(NC(=O)c2nc(NC(=O)CCNC(=O)c3nc(NC(=O)CCCNC(=O)c4cc(NC(=O)c5nc(NC(=O)c6cc(NC(=O)CCNC(=O)c7nccn7C)cn6C)cn5C)cn4C)cn3C)cn2C)cn1C [Compound 285],–,> 500
CCN(CC)CCCC[C@H](NC(=O)[C@H](CC(C)C)NC(=O)[C@H](C)NC(=O)[C@H](Cc1ccccc1)NC(=O)c1ccc(C)cc1)C(=O)N[C@@H](CO)C(=O)NCCOCCOCCOCCOCCOCCNC(=O)CCNC(=O)c1nc(NC(=O)c2cc(NC(=O)CCNC(=O)c3nc(NC(=O)CCCNC(=O)c4cc(NC(=O)c5nc(NC(=O)CCNC(=O)c6cc(NC(=O)c7nccn7C)cn6C)cn5C)cn4C)cn3C)cn2C)cn1C [Compound 85],–,< 100
CCN(CC)CCCC[C@H](NC(=O)[C@H](CC(C)C)NC(=O)[C@H](C)NC(=O)[C@H](Cc1ccccc1)NC(=O)c1ccc(C(C)(C)C)cc1)C(=O)N[C@@H](CO)C(=O)NCCOCCOCCOCCOCCOCCNC(=O)c1cc(NC(=O)c2nc(NC(=O)c3cc(NC(=O)[C@H](N)CCNC(=O)c4nc(NC(=O)CCNC(=O)c5cc(NC(=O)c6nccn6C)cn5C)cn4C)cn3C)cn2C)cn1C [Compound 116],–,> 500
COc1c(OCCOCCOCCOCCOCCOCCNC(=O)CCNC(=O)c2nc(NC(=O)c3cc(NC(=O)CCNC(=O)c4nc(NC(=O)CCCNC(=O)c5cc(NC(=O)c6nc(NC(=O)CCNC(=O)c7cc(NC(=O)c8nccn8C)cn7C)cn6C)cn5C)cn4C)cn3C)cn2C)cccc1C(=O)N1CCN(C(=O)COc2cc(C)c(N)c(C)c2)CC1 [Compound 92],> 500,–
CCN(c1cc(-c2ccc(CN3CCN(CCOCCOCCOCCOCCOCCOCCOCCOCCOCCOCCNC(=O)CCNC(=O)c4nc(NC(=O)c5cc(NC(=O)CCNC(=O)c6nc(NC(=O)CCCNC(=O)c7cc(NC(=O)c8nc(NC(=O)CCNC(=O)c9cc(NC(=O)c%10nccn%10C)cn9C)cn8C)cn7C)cn6C)cn5C)cn4C)CC3)cc2)cc(C(=O)NCc2c(C)cc(C)[nH]c2=O)c1C)C1CCOCC1 [Compound 167],> 500,–
CCN(CC)CCCC[C@H](NC(=O)[C@H](CC(C)C)NC(=O)[C@H](C)NC(=O)[C@H](Cc1ccccc1)NC(=O)c1ccc(C(C)(C)C)cc1)C(=O)N[C@@H](CO)C(=O)NCCOCCOCCOCCOCCOCCNC(=O)c1cc(NC(=O)c2nc(NC(=O)CCNC(=O)c3cc(NC(=O)c4nc(NC(=O)[C@H](CCNC(=O)c5cc(NC(=O)c6nc(NC(=O)CCNC(=O)c7cc(NC(=O)c8nccn8C)cn7C)cn6C)cn5C)NC(C)=O)cn4C)cn3C)cn2C)cn1C [Compound 132],–,< 100
COc1cc2nc(N3CCCCC3)nc(NC3CCN(CCOCCOCCOCCOCCOCCOCCOCCOCCOCCOCCNC(=O)CCNC(=O)c4nc(NC(=O)c5cc(NC(=O)CCNC(=O)c6nc(NC(=O)CCCNC(=O)c7cc(NC(=O)c8nc(NC(=O)CCNC(=O)c9cc(NC(=O)c%10nccn%10C)cn9C)cn8C)cn7C)cn6C)cn5C)cn4C)CC3)c2cc1OC [Compound 193],> 500,–
